Test results as given in PubChem BioAssay AID1963444 (Molecular Pharmacology Branch, DTP, NCI, 2024).

Test system: HSSY-II complex spheroid growth, percent test/control
Test: Anticancer human tumor HSSY-II cell line growth inhibition [Asc];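 note: spheroids exposed to drug for 7 days before reading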
Settings: for IC50: curve of first compound; for viability, T/C: stronger effect = lower value
Summary of the method: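 Tumor cells were grown as multicellular spheroids with stromal HUVEC and mesenchymal stem cells and treated singly or in combination. Concentrations fell in half-log steps from the clinical Cmax, or from 10 microM where none was known.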

[1] = second compound 0.01 µM, first compound 0.0316 µM
[2] = second compound 0.01 µM, first compound 0.1 µM
[3] = second compound 0.01 µM, first compound 0.316 µM
[4] = second compound 0.01 µM, first compound 1 µM
[5] = second compound 0.0316 µM, first compound 0.0316 µM
[6] = second compound 0.0316 µM, first compound 0.1 µM
[7] = second compound 0.0316 µM, first compound 0.316 µM
[8] = second compound 0.0316 µM, first compound 1 µM
[9] = second compound 0.1 µM, first compound 0.0316 µM
[10] = second compound 0.1 µM, first compound 0.1 µM
[11] = second compound 0.1 µM, first compound 0.316 µM
[12] = second compound 0.1 µM, first compound 1 µM
[13] = second compound 0.316 µM, first compound 0.0316 µM
[14] = second compound 0.316 µM, first compound 0.1 µM
[15] = second compound 0.316 µM, first compound 0.316 µM
[16] = second compound 0.316 µM, first compound 1 µM
[17] = second compound 1 µM, first compound 0.0316 µM
[18] = second compound 1 µM, first compound 0.1 µM
[19] = second compound 1 µM, first compound 0.316 µM
[20] = second compound 1 µM, first compound 1 µM

| IC50 (second compound 0.01 µM) | IC50 (second compound 0.0316 µM) | IC50 (second compound 0.1 µM) | IC50 (second compound 0.316 µM) | IC50 (second compound 1 µM) | SMILES | viability, T/C [1] | viability, T/C [2] | viability, T/C [3] | viability, T/C [4] | viability, T/C [5] | viability, T/C [6] | viability, T/C [7] | viability, T/C [8] | viability, T/C [9] | viability, T/C [10] | viability, T/C [11] | viability, T/C [12] | viability, T/C [13] | viability, T/C [14] | viability, T/C [15] | also measured |
| --- | --- | --- | --- | --- | --- | --- | --- | --- | --- | --- | --- | --- | --- | --- | --- | --- | --- | --- | --- | --- | --- |
| 7990 nM | 5850 nM | 5980 nM | 7420 nM | 6390 nM | C=CC(=O)N1CCN(c2nc(=O)n(-c3c(C)ccnc3C(C)C)c3nc(-c4c(O)cccc4F)c(F)cc23)C(C)C1 (stereo not given) + CNC(C)C(=O)NC1CN(S(=O)(=O)c2cccc(S(=O)(=O)N3CCC4CCC(C(=O)NC(c5ccccc5)c5ccccc5)N4C(=O)C(NC(=O)C(C)NC)C3)c2)CCC2CCC(C(=O)NC(c3ccccc3)c3ccccc3)N2C1=O | 97.5% | 108% | 107% | 101% | 92.9% | 104% | 91.7% | 89.8% | 86.9% | 91.8% | 90.6% | 87.5% | 89.5% | 98.9% | 101% | viability, T/C (second compound 0.01 µM, first compound 3.16 µM): 94.3%; viability, T/C (second compound 0.01 µM, first compound 10 µM): 39.1%; viability, T/C (second compound 0.0316 µM, first compound 3.16 µM): 72%; viability, T/C (second compound 0.0316 µM, first compound 10 µM): 30.9%; viability, T/C (second compound 0.1 µM, first compound 3.16 µM): 68.4%; viability, T/C (second compound 0.1 µM, first compound 10 µM): 35.1%; viability, T/C [16]: 92.2%; viability, T/C (second compound 0.316 µM, first compound 3.16 µM): 89.1%; viability, T/C (second compound 0.316 µM, first compound 10 µM): 36.2%; viability, T/C [17]: 82.7%; viability, T/C [18]: 87.6%; viability, T/C [19]: 88.5%; viability, T/C [20]: 73.5%; viability, T/C (second compound 1 µM, first compound 3.16 µM): 89%; viability, T/C (second compound 1 µM, first compound 10 µM): 28.1% |
| 44 nM | 45.1 nM | 34.9 nM | 45.9 nM | 54 nM | COc1c(OCCCN2CCOCC2)ccc2c3n(c(=NC(=O)c4cnc(N)nc4)nc12)CCN3 + CNC(C)C(=O)NC1CN(S(=O)(=O)c2cccc(S(=O)(=O)N3CCC4CCC(C(=O)NC(c5ccccc5)c5ccccc5)N4C(=O)C(NC(=O)C(C)NC)C3)c2)CCC2CCC(C(=O)NC(c3ccccc3)c3ccccc3)N2C1=O | 51.4% | 36.8% | 22.4% | 12% | 54.8% | 34.3% | 21.8% | 9.94% | 49% | 38.8% | 24.7% | 10.4% | 53.8% | 34.5% | 24.2% | viability, T/C (second compound 0.01 µM, first compound 0.00316 µM): 84.3%; viability, T/C (second compound 0.01 µM, first compound 0.01 µM): 79.6%; viability, T/C (second compound 0.0316 µM, first compound 0.00316 µM): 82%; viability, T/C (second compound 0.0316 µM, first compound 0.01 µM): 77.5%; viability, T/C (second compound 0.1 µM, first compound 0.00316 µM): 81.2%; viability, T/C (second compound 0.1 µM, first compound 0.01 µM): 64.9%; viability, T/C (second compound 0.316 µM, first compound 0.00316 µM): 86.4%; viability, T/C (second compound 0.316 µM, first compound 0.01 µM): 80.1%; viability, T/C [16]: 8.5%; viability, T/C (second compound 1 µM, first compound 0.00316 µM): 80.1%; viability, T/C (second compound 1 µM, first compound 0.01 µM): 73.8%; viability, T/C [17]: 63.2%; viability, T/C [18]: 33.7%; viability, T/C [19]: 24.7%; viability, T/C [20]: 9.52% |
